Laboratory results from ChEMBL document CHEMBL1152671, “Structure-activity relationship studies of manzamine A: amidation of positions 6 and 8 of the beta-carboline moiety” (Bioorg Med Chem, 2009).
Converted amounts (≈) assume the structure as drawn. The source made the active and inactive calls. The rule behind the calls is not given here.

Columns and labels:
[1] = system: Plasmodium falciparum; assay: Antimalarial activity against chloroquine-resistant Plasmodium falciparum W2 infected in African green monkey (Cercopithecus aethiops) (Cercopithecus aethiops) Vero cells assessed as parasite LDH activity after 72 hrs; format: functional, organism-based
[2] = system: Cryptococcus neoformans; assay: Antifungal activity against Cryptococcus neoformans after 24 hrs by alamar blue assay; format: functional
[3] = system: Cryptococcus neoformans; assay: Antifungal activity against Cryptococcus neoformans by modified NCCLS method; format: functional, organism-based
[4] = system: Candida albicans
Description: Antifungal activity against Candida albicans after 24 hrs by alamar blue assay

[5] = system: Vero; assay: Cytotoxicity against african green monkey Vero cells up to 470 nM by neutral red assay; format: cell-based; settings: chlorocebus sabaeus
[6] = system: Mycobacterium intracellulare; assay: Antibacterial activity against Mycobacterium intracellular after 24 hrs by alamar blue assay; format: functional
[7] = system: Pseudomonas aeruginosa; assay: Antibacterial activity against Pseudomonas aeruginosa by modified NCCLS method; format: functional, organism-based
[8] = system: Aspergillus fumigatus
Description: Antifungal activity against Aspergillus fumigatus after 24 hrs by alamar blue assay

[9] = system: Escherichia coli; assay: Antibacterial activity against Escherichia coli by modified NCCLS method; format: functional, organism-based
[10] = system: Mycobacterium intracellulare; assay: Antibacterial activity against Mycobacterium intracellular by alamar blue assay; format: functional, organism-based
[11] = system: Candida albicans; assay: Antifungal activity against Candida albicans by modified NCCLS method; format: functional, organism-based
[12] = system: Plasmodium falciparum; assay: Antimalarial activity against chloroquine-sensitive Plasmodium falciparum D6 infected in African green monkey (Cercopithecus aethiops) Vero cells assessed as parasite LDH activity after 72 hrs; format: functional, organism-based
[13] = system: Aspergillus fumigatus; assay: Antifungal activity against Aspergillus fumigatus by modified NCCLS method; format: functional, organism-based
[14] = Cryptococcus neoformans, read-out: IC50
[15] = Candida albicans, read-out: IC50

Row | SMILES | IC50 [1] [µM] | MIC [2] | IC50 [3] | MIC [4] | Activity [5] | MIC [6] [µM] | Activity [7] | MIC [8] | Activity [9] | IC50 [10] [µM] | IC50 [11] | IC50 [12] [µM] | IC50 [13] | IC50 [3, 14] [µM] | IC50 [11, 15] [µM] | IC50 ([13]; Aspergillus fumigatus, read-out: IC50) [µM]
1 | CC(C)(C)CC(=O)Nc1ccc2[nH]c3c(C4=C[C@@]5(O)CC/C=C\CCCCN6CC[C@@H]4[C@]4(C[C@@H]7/C=C\CCCCN7[C@H]45)C6)nccc3c2c1 | 0.302 | inactive | Not Active | inactive | Non-toxic | 1.89 (≈ 1.25 µg/mL) | inactive | inactive | inactive | 1.36 | Not Active | 0.211 | Not Active |  |  | 
2 | CC(C)(C)CC(=O)Nc1cccc2c1[nH]c1c(C3=C[C@@]4(O)CC/C=C\CCCCN5CC[C@@H]3[C@]3(C[C@@H]6/C=C\CCCCN6[C@H]34)C5)nccc12 | 0.127 | inactive |  | inactive | Non-toxic | 3.78 (≈ 2.5 µg/mL) | inactive | inactive | inactive | 1.51 | Not Active | 0.139 | Not Active | 14.4 |  | 
3 | Oc1cccc2c1[nH]c1c(C3=C[C@@]4(O)CC/C=C\CCCCN5CC[C@@H]3[C@]3(C[C@@H]6/C=C\CCCCN6[C@H]34)C5)nccc12 | 0.014 |  |  | inactive |  |  |  |  |  | 0.177 |  | 0.011 |  | 3.55 | 6.21 | 
4 | CC(=O)Nc1ccc2[nH]c3c(C4=C[C@@]5(O)CC/C=C\CCCCN6CC[C@@H]4[C@]4(C[C@@H]7/C=C\CCCCN7[C@H]45)C6)nccc3c2c1 [6-ACETAMIDOMANZAMINE A] | 1.98 | inactive | Not Active | inactive | Non-toxic | 16.5 (≈ 10 µg/mL) | inactive | inactive | inactive | 9.91 | Not Active | 1.29 | Not Active |  |  | 
5 | CC(C)C(=O)Nc1ccc2[nH]c3c(C4=C[C@@]5(O)CC/C=C\CCCCN6CC[C@@H]4[C@]4(C[C@@H]7/C=C\CCCCN7[C@H]45)C6)nccc3c2c1 [6-ISOBUTAMIDOMANZAMINE A] | 1.55 | inactive | Not Active | inactive | Non-toxic | 3.95 (≈ 2.5 µg/mL) | inactive | inactive | inactive | 3.16 | Not Active | 1.1 | Not Active |  |  | 
6 | CCCC(=O)Nc1ccc2[nH]c3c(C4=C[C@@]5(O)CC/C=C\CCCCN6CC[C@@H]4[C@]4(C[C@@H]7/C=C\CCCCN7[C@H]45)C6)nccc3c2c1 [6-N-BUTAMIDOMANZAMINE A] | 1.89 | inactive | Not Active | inactive | Non-toxic | 7.89 (≈ 5 µg/mL) | inactive | inactive | inactive | 4.74 | Not Active | 1.15 | Not Active |  |  | 
7 | CCCCCC(=O)Nc1ccc2[nH]c3c(C4=C[C@@]5(O)CC/C=C\CCCCN6CC[C@@H]4[C@]4(C[C@@H]7/C=C\CCCCN7[C@H]45)C6)nccc3c2c1 [6-N-HEXAMIDOMANZAMINE A] | 0.786 | inactive | Not Active | inactive | Non-toxic | 30.2 (≈ 20 µg/mL) | inactive | inactive | inactive | 15.1 | Not Active | 0.68 | Not Active |  |  | 
8 | CCCCCCC(=O)Nc1ccc2[nH]c3c(C4=C[C@@]5(O)CC/C=C\CCCCN6CC[C@@H]4[C@]4(C[C@@H]7/C=C\CCCCN7[C@H]45)C6)nccc3c2c1 [6-N-OCTAMIDOMANZAMINE A] | 0.754 | inactive | Not Active | inactive | Non-toxic | 29 (≈ 19.6 µg/mL) | inactive | inactive | inactive | 17.4 | Not Active | 0.696 | Not Active |  |  | 
9 | CCCCC(=O)Nc1ccc2[nH]c3c(C4=C[C@@]5(O)CC/C=C\CCCCN6CC[C@@H]4[C@]4(C[C@@H]7/C=C\CCCCN7[C@H]45)C6)nccc3c2c1 [6-N-PENTAMIDOMANZAMINE A] | 1.48 | inactive | Not Active | inactive | Non-toxic | 3.86 (≈ 2.5 µg/mL) | inactive | inactive | inactive | 2.32 | Not Active | 1.24 | Not Active |  |  | 
10 | CCC(=O)Nc1ccc2[nH]c3c(C4=C[C@@]5(O)CC/C=C\CCCCN6CC[C@@H]4[C@]4(C[C@@H]7/C=C\CCCCN7[C@H]45)C6)nccc3c2c1 [6-N-PROPAMIDOMANZAMINE A] | 1.94 | inactive | Not Active | inactive | Non-toxic | 8.07 (≈ 5 µg/mL) | inactive | inactive | inactive | 5.65 | Not Active | 1.16 | Not Active |  |  | 
11 | CC(C)(C)C(=O)Nc1ccc2[nH]c3c(C4=C[C@@]5(O)CC/C=C\CCCCN6CC[C@@H]4[C@]4(C[C@@H]7/C=C\CCCCN7[C@H]45)C6)nccc3c2c1 [6-PIVALAMIDOANZAMINE A] | 0.417 | inactive | Not Active | inactive | Non-toxic | 3.86 (≈ 2.5 µg/mL) | inactive | inactive | inactive | 1.54 | Not Active | 0.231 | Not Active |  |  | 
12 | CC(=O)Nc1cccc2c1[nH]c1c(C3=C[C@@]4(O)CC/C=C\CCCCN5CC[C@@H]3[C@]3(C[C@@H]6/C=C\CCCCN6[C@H]34)C5)nccc12 [8-ACETAMIDOMANZAMINE A] | 0.231 | inactive |  | inactive | Non-toxic | 2.06 (≈ 1.25 µg/mL) | inactive | inactive | inactive | 1.65 | Not Active | 0.182 | Not Active | 33.4 |  | 
13 | O=C(Nc1cccc2c1[nH]c1c(C3=C[C@@]4(O)CC/C=C\CCCCN5CC[C@@H]3[C@]3(C[C@@H]6/C=C\CCCCN6[C@H]34)C5)nccc12)C1CCCCC1 [8-CYCLOHEXAMIDOMANZAMINE A] | 0.995 | inactive | Not Active | inactive | Non-toxic | 14.8 (≈ 10 µg/mL) | inactive | inactive | inactive | 11.1 | Not Active | 0.95 | Not Active |  |  | 
14 | CC(C)C(=O)Nc1cccc2c1[nH]c1c(C3=C[C@@]4(O)CC/C=C\CCCCN5CC[C@@H]3[C@]3(C[C@@H]6/C=C\CCCCN6[C@H]34)C5)nccc12 [8-ISOBUTAMIDOMANZAMINE A] | 0.205 | inactive |  | inactive | Non-toxic | 1.97 (≈ 1.25 µg/mL) | inactive | inactive | inactive | 1.03 | Not Active | 0.158 | Not Active | 3.16 |  | 
15 | CCCC(=O)Nc1cccc2c1[nH]c1c(C3=C[C@@]4(O)CC/C=C\CCCCN5CC[C@@H]3[C@]3(C[C@@H]6/C=C\CCCCN6[C@H]34)C5)nccc12 [8-N-BUTAMIDOMANZAMINE A] | 0.121 | inactive |  | inactive | Non-toxic | 1.97 (≈ 1.25 µg/mL) | inactive | inactive | inactive | 0.868 | Not Active | 0.035 | Not Active | 23.7 |  | 
16 | CCC(=O)Nc1cccc2c1[nH]c1c(C3=C[C@@]4(O)CC/C=C\CCCCN5CC[C@@H]3[C@]3(C[C@@H]6/C=C\CCCCN6[C@H]34)C5)nccc12 [8-N-PROPAMIDOMANZAMINE A] | 0.087 |  |  | inactive | Non-toxic | 2.02 (≈ 1.25 µg/mL) | inactive | inactive | inactive | 1.52 |  | 0.123 |  |  | > 32.3 | > 32.3
17 | C[C@@H]1CC[C@H]2[C@@H](C)C(=O)O[C@@H]3O[C@@]4(C)CC[C@@H]1[C@]32OO4 [ARTEMISININ] | 0.028 |  |  |  |  |  |  |  |  |  |  | 0.046 |  |  |  | 
18 | O=C(O)c1cn(C2CC2)c2cc(N3CCNCC3)c(F)cc2c1=O [CIPROFLOXACIN] |  |  |  |  |  |  |  |  |  | 1.06 |  |  |  |  |  | 
